From paper PMC8060220, “Comparative study of hyperpure chlorine dioxide with two other irrigants regarding the viability of periodontal ligament stem cells” (Clinical Oral Investigations, 2020)
pIC50: −log10 of the molar value. Marks after values point to notes of the source that are not given here.

Key:
PDLSCs [1] = test: WST-1 test, concentration-response study; assay type: cell-based, human; details: 48-h incubation, 50% viable cells
Experimental: (§1) To evaluate the concentration-dependent effects of the 3 antiseptic agents (H2O2, CHX, and ClO2), 9 different dilutions of each agent were prepared with growth medium (from 3.91 × 10^−6 to 10^−3 M, by 1:2 dilution in each step). As ClO2 is photosensitive and volatile, its dilution series were made in dark Eppendorf tubes which were opened only for the inevitably required time. After a 48-h-long incubation, cell viability was assessed by WST-1 test and impedimetric measurement, respectively (see below). The […] (IC50) values corresponding to the 50% viable cells or 0.5 normalized CI were determined from the concentration-effect curves in the case of the two methods, respectively.
(§2) This assay is dedicated to measuring the viability of PDLSCs. In 96-well culture plates, 10,000 PDLSCs were seeded. After 24 h, samples were treated with the irrigative compounds, and final concentrations were H2O2 0.3%, CHX 0.02%, and ClO2 0.0025% and 0.00025% solutions in 4-4 parallel wells. After 10 min, all the irrigative agents were removed and the samples were washed three times with normal growth medium, simulating the diluting effect of saliva in the oral cavity during the periodontal treatments. Forty-eight hours after the treatments, the cell viability was measured by the cell proliferation reagent containing water-soluble tetrazolium salt, WST-1 [2-(4-Iodophenyl)-3-(4-nitrophenyl)-5-(2,4-disulfophenyl)-2H-tetrazolium] (Roche). This assay determines mitochondrial dehydrogenase enzyme activity resulting water-soluble cleavage product. The WST-1 reagent was used at 1:20 dilution and incubation time was 2 h at 37 °C. Absorbance was measured at 450 nm with a reference wavelength of 655 nm by a microplate reader (BIO-RAD Model 3550). Background control values were determined in wells seeded with no cells. Each value represents the average of minimum 3 parallel measurements.

PDLSCs [2] = test: Impedimetry (xCELLigence), concentration-response study; assay type: cell-based, human; details: 48-h incubation, 0.5 normalized CI
Experimental: as §1
The effect of irrigative agents on the viability of the PDLSC cells was assessed using the xCELLigence SP System (Roche Applied Science, Indianapolis, IN, USA), which monitors the cellular events by measuring electrical impedance across interdigitating gold microelectrodes integrated on the bottom of tissue culture plates (E-plates). The detected impedance is influenced by the viability and morphology of the attached cells on the surface of the electrodes. The presence of cells due to their insulating plasma membranes constrain the electrical current and lead to an increase in the electrode impedance. The impedance depends on the number of the attached cells and on the dimensional change of the attached cells on the electrodes. More cells attached to the electrode or spreading cause a larger increase in the impedance. The change in impedances represented as “cell index” (CI) which is a relative and dimensionless value. Briefly, the experimental protocol was as follows: to register the background value, 100 μL of culture medium was added to each well and impedance was recorded for 1 h to gain constant background curves of impedance. […] The viability of the PDLSC was monitored for 96 h. Normalized impedance to the control calculated by the integrated software (RTCA 1.2—Roche Applied Science, Indianapolis, IN, USA) was used for the statistical evaluation. […]

PDLSCs [3] = test: Impedimetry (xCELLigence), 10 min treatment, time course and viability; assay type: cell-based, human; details: for long-term (2–120 h) effect on normalized CI / short-term (0–2 h) effect on normalized CI / viability of PDLSC cultures, impedimetry: 0.3% H2O2, 0.02% CHX; for long-term (2–120 h) effect on normalized CI / short-term (0–2 h) effect on normalized CI: 0.0025% and 0.00025% ClO2, 10 min treatment; for viability of PDLSC cultures, impedimetry: P3 and P7, 48 h
Experimental: The effect of irrigative agents on the viability of the PDLSC cells was assessed using the xCELLigence SP System (Roche Applied Science, Indianapolis, IN, USA), which monitors the cellular events by measuring electrical impedance across interdigitating gold microelectrodes integrated on the bottom of tissue culture plates (E-plates). The detected impedance is influenced by the viability and morphology of the attached cells on the surface of the electrodes. The presence of cells due to their insulating plasma membranes constrain the electrical current and lead to an increase in the electrode impedance. The impedance depends on the number of the attached cells and on the dimensional change of the attached cells on the electrodes. More cells attached to the electrode or spreading cause a larger increase in the impedance. The change in impedances represented as “cell index” (CI) which is a relative and dimensionless value. Briefly, the experimental protocol was as follows: to register the background value, 100 μL of culture medium was added to each well and impedance was recorded for 1 h to gain constant background curves of impedance. In the following step, PDLSCs were seeded in 10^5 cells/mL density. After 24-h incubation, they were treated with the solutions of the investigated irrigative compounds (H2O2, CHX, and ClO2) for 10 min and the medium served as reference. […] Normalized impedance to the control calculated by the integrated software (RTCA 1.2—Roche Applied Science, Indianapolis, IN, USA) was used for the statistical evaluation. Each data point represents the mathematical average of three parallels.

PDLSCs [4] = test: WST-1 viability assay, 10 min treatment; assay type: cell-based, human; details: P3 and P7; 48 h; 0.3% H2O2, 0.02% CHX, higher ClO2 concentration (0.0025%)
Experimental: as §2

PDLSC cultures = test: Morphological study, phase-contrast microscopy; assay type: cell-based, human; details: for cell morphology and cell number under phase-contrast microscope: 48 h after treatment, 0.3% H2O2, 0.02% CHX, 0.0025% or 0.00025% ClO2
Description: Cellular morphology was observed under an inverted phase-contrast microscope (Nikon TMS). Photomicrographs were taken applying a high-performance CCD camera (COHU) and the Scion image software.

STRO-1 = test: Immunocytochemistry of stem cell marker STRO-1; assay type: cell-based, human; details: 48 h, 0.02% CHX, 0.0025% (1/1) ClO2
Experimental: (§3) PDLSC cultures grown in 8 chamber slides (Nunc Lab-Tek) were treated with the antiseptic agents similar to the viability studies. After 48 h, treated and untreated cell cultures were fixed in 4% PFA in PBS for 20 min at room temperature (RT). To block non-specific binding, 5% goat serum in PBS was applied for 1 h at RT. Then cell cultures were incubated with the primary antibodies diluted 1:100 with 2.5% goat serum in PBS overnight at 4 °C. The applied primary antibodies were the following: anti-STRO-1 antibody (type mouse IgM)—a generous gift from Prof. Richard Oreffo (University of Southampton, UK); anti-CD90 (Thy-1; type mouse IgG) and the anti-CD105 (endoglin; type mouse IgM) antibodies purchased from Calbiochem and Santa Cruz Biotechnology, respectively. Goat anti-mouse IgM and IgG type secondary antibodies conjugated with Alexa Fluor 488 (Molecular Probes) were diluted with 2.5% goat serum in PBS in 1:2000 and 1:1000 respectively. The incubation time was 60 min at RT. Finally, the walls of the chambers were removed and the slides were mounted with ProLong Gold antifade reagent with DAPI (Molecular Probes). Immunocytochemically labeled cell cultures were investigated under a fluorescence microscope (Nikon Eclipse E600), the photos were taken by a Retiga 2000R digital CCD camera (QImaging), and analyzed by the Image Pro software (Media Cybernetics). Free macros for automated fluorescence analysis of image processing software FIJI/ImageJ were applied to evaluate immunostaining of stem cell markers. Each test point represents 3 × 3 reading of the samples.

CD90 = test: Immunocytochemistry of stem cell marker CD90; assay type: cell-based, human; details: 48 h, 0.02% CHX, 0.0025% (1/1) ClO2
Experimental: as §3

CD105 = test: Immunocytochemistry of stem cell marker CD105; assay type: cell-based, human; details: 48 h, 0.02% CHX, 0.0025% (1/1) ClO2
Experimental: as §3

gingival fibroblasts [5] = test system: gingival fibroblasts; set-up: method as in PMID 10632519; details: cited from earlier work
gingival fibroblasts [6] = test system: gingival fibroblasts; set-up: method as in PMID 1920010; details: exposure of dental root surfaces to CHX (0.12%); cited from earlier work
PDL cells = test system: PDL cells; set-up: method as in PMID 1507037; details: 0.2 to 2.0% CHX pretreatment of the root surface; cited from earlier work
equine fibroblasts = details: cited from earlier work
[7] = long incubation time; cited from earlier work

## [H]/N=C(\N/C(=N/[H])NCCCCCCNC(=N)NC(=N)Nc1ccc(Cl)cc1)Nc1ccc(Cl)cc1 [CHX, chlorhexidine]
PDLSCs [1]
  pIC50: 4.78
PDLSCs [1]; Homo sapiens, 48 h
  pIC50: 4.53
PDLSCs [2]; Homo sapiens, 48 h
  pIC50: 4.44
PDLSCs [3]
  long-term (2–120 h) effect on normalized CI: retained their short-term cytotoxic effects
  short-term (0–2 h) effect on normalized CI: rapid decrease of normalized CI profile
  viability of PDLSC cultures, impedimetry: significantly deteriorating effects
PDLSCs [3]; 5-day-long period after treatment
  repopulation in long-term impedimetric analysis: no sign of repopulation
PDLSCs [3]; impedimetric results, 0.02% CHX
  cells killed in 5 min: 50%
PDLSCs [3]; impedimetric results, 0.02% CHX, ClO2 depending on the concentration applied (0.0025%, 0.00025%)
  cells killed during the first 30 min: about 70%
PDLSCs [4]
  viability of PDLSC cultures, WST-1: significantly deteriorating effects
PDLSC cultures
  cell morphology and cell number under phase-contrast microscope: number of cells dramatically decreased
STRO-1; P3
  STRO-1 Fluo. int. [%] Control = 100%: 130.52* %
STRO-1; P7
  STRO-1 Fluo. int. [%] Control = 100%: 86.02%
CD90; P3
  CD90 Fluo. int. [%] Control = 100%: 199.23*** %
CD90; P7
  CD90 Fluo. int. [%] Control = 100%: 30.98*** %
CD105; P3
  CD105 Fluo. int. [%] Control = 100%: 218.18*** %
CD105; P7
  CD105 Fluo. int. [%] Control = 100%: 104.81%
Gingival fibroblasts [5]
  low concentration shown to be toxic, reducing production of collagen and non-collagen proteins: 0.0001%
Gingival fibroblasts [6]
  subsequent attachment of gingival fibroblasts: significantly inhibited
PDL cells
  attachment of PDL cells onto the root surface and their morphology: adversely altered
Equine fibroblasts
  concentration with 50% of survival: 0.005%

## OO [H2O2, hydrogen peroxide]
PDLSCs [1]
  pIC50: 3.68
PDLSCs [2]
  pIC50: 3.49
PDLSCs [3]
  long-term (2–120 h) effect on normalized CI: retained their short-term cytotoxic effects
  short-term (0–2 h) effect on normalized CI: rapid decrease of normalized CI profile
  viability of PDLSC cultures, impedimetry: complete lack of any viable cells
PDLSCs [3]; impedimetric results, 0.3% H2O2
  time to kill all the cells: ≤ 1 min
PDLSCs [4]
  viability of PDLSC cultures, WST-1: complete lack of any viable cells
PDLSC cultures; 48 h after treatment with H2O2
  state of cultures at fixation for immunocytochemistry: all the cells were dead and detached from the slide
PDLSC cultures
  cell morphology and cell number under phase-contrast microscope: number of cells dramatically decreased
[7]
  concentrations at which in vitro sporicide effects are evident: 10–30%
